Measurements as given in article PMC8198792, “Prediction of Anticancer Peptides with High Efficacy and Low Toxicity by Hybrid Model Based on 3D Structure of Peptides” (International Journal of Molecular Sciences, 2021).
Bridge positions count the residues as written; N and C are the ends. Peptide text beside a SMILES is read from it.

Assays:
[1] = system: colorectal adenocarcinoma cell line (LoVo); assay type: cell-based, human; details: MTT assay, 6000 cells per well, peptides 0.5-128 μM for 24 h, triplicate, absorbance 570 and 630 nm; read-out: IC50 (μM) LoVo
Excerpt: (§1) Five peptides were randomly selected from the candidate ACPs and synthesized by Changzhou Kanglong Biotech Ltd (Changzhou, China). using 9-fuorenylmethoxy carbonyl (FMOC) solid phase synthesis technology. The synthetic peptide was identified by mass spectrometry (MS), and the purity >95% by high performance liquid chromatography (HPLC). Human breast cancer cell line (MCF7), lung cancer cell line (A549), cervical cancer cell line (HeLa), colorectal adenocarcinoma cell line (LoVo) and human embryonic kidney cells (293T) were preserved in our laboratory. At 37 °C under 5/95% CO2/air condition, all cell lines were cultured in Dulbecco’s modified Eagle medium (DMEM) supplemented with 10% (v/v) fetal bovine serum (FBS, Gibco, Carlsbad, CA, USA) and 1% (v/v) penicillin/streptomycin (Sangon Biotech, Shanghai, China).
(§2) Human tumor cell lines MCF7, A549, HeLa and LoVo were used as experimental materials to detect the anticancer activity of peptides by MTT assay. In addition, human embryonic kidney cells 293T were also included in the experiment to examine the safety of the peptide against non-cancerous cells. […] Untreated cells as negative control group incubated with corresponding medium for 24 h. Subsequently, 10 uL, 5 mg/mL MTT (Sangon Biotech, Shanghai, China) solution was added to each well and incubated for 4 h at 37 °C. After the medium was discarded, 150 μL DMSO was added to each well for 10 min to dissolve formazan crystals. Absorbance was measured at 570 and 630 nm using a multiwall plate reader and the inhibition rate was expressed as the mean ± standard deviation (SD) of the triplicate data.

[2] = system: cervical cancer cell line (HeLa); assay type: cell-based, human; details: MTT assay, 6000 cells per well, peptides 0.5-128 μM for 24 h, triplicate, absorbance 570 and 630 nm; read-out: IC50 (μM) HeLa
Excerpt: as §1, §2

[3] = system: lung cancer cell line (A549); assay type: cell-based, human
Excerpt: as §1, §2

[4] = system: human embryonic kidney cells (293T); test: MTT assay on non-cancerous cells, 293T; assay type: cell-based
Excerpt: as §1, §2

[5] = system: 2% sheep red blood cells (SRBC); test: Hemolysis assay; assay type: cell-based
Experimental: The 2% sheep red blood cells (SRBC) were purchased from Nanjing Senbeijia Biological Technology Co., Ltd (Nangjing, China). A total of 4 mL of 2% SRBC was taken, rinsed twice with 4 mL of PBS by centrifugation for 5 min at 3000 rpm and the precipitates were resuspended in 4 mL of PBS. We added 100 μL of 2% SRBC to each well of the 96-well plate and then added 100 μL peptide solutions of different concentrations (2, 4, 8, 16, 32, 64, 128 and 256 μM) in triplicate at 37 °C for 1 h. 100 μL of PBS buffer and 100 uL of Triton X-100 0.1% (w/v) were mixed with SRBC as negative and positive controls, respectively. All samples were centrifuged at 3000 rpm for 5 min, 100 μL supernatant was collected and transferred to a new 96-well plate, and its absorbance was measured at 540 nm. The calculation formula of hemolysis rate is as follows. (5) % Hemolysis=absorbancesample-absorbancenegative/absorbancepositive-absorbancenegative×100

[6] = system: Human breast cancer cell line (MCF7); assay type: cell-based; details: MTT assay, 6000 cells per well, peptides 0.5-128 μM for 24 h, triplicate, absorbance 570 and 630 nm; read-out: IC50 (μM) MCF7
Excerpt: as §1, §2

CC[C@H](C)[C@H](NC(=O)[C@H](CC(C)C)NC(=O)[C@H](CC(C)C)NC(=O)[C@H](CC(=O)O)NC(=O)[C@H](CCCCN)NC(=O)[C@@H](NC(=O)[C@H](C)NC(=O)CNC(=O)[C@H](CC(C)C)NC(=O)[C@@H](NC(=O)CN)C(C)C)C(C)C)C(=O)NCC(=O)N[C@@H](C)C(=O)NCC(=O)N[C@@H](CCCCN)C(=O)N[C@@H](CO)C(=O)N[C@@H](C)C(=O)N[C@@H](C)C(=O)N[C@@H](CCC(N)=O)C(=O)N[C@@H](CO)C(=O)N[C@H](C(=O)N[C@@H](CC(C)C)C(=O)N[C@@H](CCCCN)C(=O)N[C@H](C(=O)N[C@@H](CC(C)C)C(=O)N[C@@H](CO)C(=O)N[C@H]1CSSC[C@@H](C(=O)O)NC(=O)[C@H](CC(=O)O)NC(=O)[C@H](CC(N)=O)NC(=O)[C@H](CO)NC(=O)[C@H](CC(C)C)NC(=O)[C@H](CCCCN)NC1=O)[C@@H](C)O)C(C)C [Odorranain-C1] (H-GVLGAVKDLLIGAGKSAAQSVLKTLSCKLSNDC-OH; disulfide 27-33)
IC50 [1]: 55.2 µM | IC50 [2]: 52.8 µM | IC50 ([3]; MTT assay, 6000 cells per well, peptides 0.5-128 μM for 24 h, triplicate, absorbance 570 and 630 nm, read-out: IC50 (μM) A549): 27.3 µM | killing effects on lung cancer cell A549 (in words) ([3]; MTT, 24 h, anticancer activity when IC50 less than 50 μM): effective killing effects | toxicity to 293T cells (in words) ([4]; low toxicity when the IC50 value exceeded 50 μM, MTT, 24 h): certain toxicity | IC50 ([4]; non-cancerous cells, MTT assay, 6000 cells per well, peptides 0.5-128 μM for 24 h, triplicate, absorbance 570 and 630 nm, read-out: IC50 (μM) 293T): 48.7 µM | hemolysis (in words) ([5]; hemolytic rate of 100 μM peptides more than 10% as the classification standard, 2% sheep erythrocytes): no hemolysis | Hemolytic effect on 2% sheep erythrocytes, peptide concentration 2 μM ([5]; peptide 2 μM, 2% SRBC in PBS, 37 °C, 1 h, absorbance 540 nm, triplicate): − (The “−” symbol indicates the hemolysis rate of less than 10% at peptides concentration of 100 μM) | Hemolytic effect on 2% sheep erythrocytes, peptide concentration 4 μM ([5]; peptide 4 μM, 2% SRBC in PBS, 37 °C, 1 h, absorbance 540 nm, triplicate): − (The “−” symbol indicates the hemolysis rate of less than 10% at peptides concentration of 100 μM) | Hemolytic effect on 2% sheep erythrocytes, peptide concentration 8 μM ([5]; peptide 8 μM, 2% SRBC in PBS, 37 °C, 1 h, absorbance 540 nm, triplicate): − (The “−” symbol indicates the hemolysis rate of less than 10% at peptides concentration of 100 μM) | Hemolytic effect on 2% sheep erythrocytes, peptide concentration 16 μM ([5]; peptide 16 μM, 2% SRBC in PBS, 37 °C, 1 h, absorbance 540 nm, triplicate): − (The “−” symbol indicates the hemolysis rate of less than 10% at peptides concentration of 100 μM) | Hemolytic effect on 2% sheep erythrocytes, peptide concentration 32 μM ([5]; peptide 32 μM, 2% SRBC in PBS, 37 °C, 1 h, absorbance 540 nm, triplicate): − (The “−” symbol indicates the hemolysis rate of less than 10% at peptides concentration of 100 μM) | Hemolytic effect on 2% sheep erythrocytes, peptide concentration 64 μM ([5]; peptide 64 μM, 2% SRBC in PBS, 37 °C, 1 h, absorbance 540 nm, triplicate): − (The “−” symbol indicates the hemolysis rate of less than 10% at peptides concentration of 100 μM) | Hemolytic effect on 2% sheep erythrocytes, peptide concentration 128 μM ([5]; peptide 128 μM, 2% SRBC in PBS, 37 °C, 1 h, absorbance 540 nm, triplicate): − (The “−” symbol indicates the hemolysis rate of less than 10% at peptides concentration of 100 μM) | Hemolytic effect on 2% sheep erythrocytes, peptide concentration 256 μM ([5]; peptide 256 μM, 2% SRBC in PBS, 37 °C, 1 h, absorbance 540 nm, triplicate): − (The “−” symbol indicates the hemolysis rate of less than 10% at peptides concentration of 100 μM) | IC50 [6]: 41.2 µM
